Some test systems named below: OVCAR-3; K562; RPMI-8226; T47D; RXF 393; 786-0; NCI-H522; SW-620; SN12C; Malme-3M; HL-60; OVCAR-8; HCT-15; MDA-MB-435; MDA-N; SF-295; SR; NCI/ADR-RES; TK-10; HCT-116.
Holding throughout (test): inhibition of tumour cell growth, NCI panel, 48 h

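48-hour exposure; five concentrations; linearly interpolated endpoints. GI50 is the concentration that inhibits growth by half.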 Active and inactive are the calls of the source. No stated cut-off is given here; in the data, active = GI50 up to about 1.1 µM and inactive = higher.

For `COc1cc(/C=N/N=C2NCCCN2)ccc1O`, the GI50 in the assay with OVCAR-3, with K562, with RPMI-8226, with T47D, with RXF 393 and with 786-0 was > 100 µM (inactive) in each case. The GI50 was > 100 µM (inactive) in the assay on NCI-H522; > 100 µM (inactive) with SW-620; > 100 µM (inactive) with SN12C; 95.7 µM (inactive) in the assay with Malme-3M; > 100 µM (inactive) with HL-60; > 100 µM (inactive) with OVCAR-8. Further, the GI50 is more than 100 µM with HCT-15; > 100 µM (inactive) in the assay on MDA-MB-435; > 100 µM (inactive) in the assay on MDA-N; > 100 µM (inactive) in the assay on SF-295; > 100 µM (inactive) in the assay on SR; > 100 µM (inactive) with NCI/ADR-RES. The GI50 in the assay with TK-10 and with HCT-116 was > 100 µM (inactive) each time.

For the compound `Cn1cc(-c2cnc(-c3cn(C)c4ccccc34)cn2)c2ccccc21`, the GI50 with OVCAR-3 was 3.04 µM (inactive); with K562, 3.8 µM (inactive); in the assay with RPMI-8226, 4.98 µM (inactive); with T47D, 44.8 µM (inactive); in the assay with RXF 393, 3.25 µM (inactive); with 786-0, 4.6 µM (inactive). Besides, the GI50 is 1.51 µM (inactive) in the assay with NCI-H522; 3.19 µM (inactive) in the assay with SW-620; 8.85 µM (inactive) in the assay with SN12C; 5.11 µM (inactive) in the assay on Malme-3M; 2.72 µM (inactive) with HL-60; 4.89 µM (inactive) with OVCAR-8. The GI50 in the assay with HCT-15 was 0.187 µM; in the assay with MDA-MB-435 it was 0.811 µM (active); in the assay with MDA-N, 0.767 µM (active); in the assay on SF-295, 2.44 µM (inactive); in the assay on SR it was 3.09 µM (inactive); in the assay with NCI/ADR-RES, 2.96 µM (inactive). Further, the GI50 in the assay on TK-10 was 18.6 µM (inactive); in the assay with HCT-116, 3.4 µM (inactive).

Turning to `Nc1nc(Cl)cc(NCC2(O)CCCC2)n1`, the GI50 in the assay with OVCAR-3, with K562, with RPMI-8226, in the assay on T47D, in the assay with RXF 393 and in the assay on 786-0 was > 100 µM (inactive) throughout. For the same compound, the GI50 in the assay with NCI-H522, in the assay with SW-620, with SN12C, in the assay on Malme-3M, in the assay on HL-60 and with OVCAR-8 was > 100 µM (inactive) each time. In addition, the GI50 in the assay on HCT-15 is more than 100 µM; in the assay on MDA-MB-435, > 100 µM (inactive); in the assay on MDA-N it was > 100 µM (inactive); in the assay on SF-295, > 100 µM (inactive); with SR, > 100 µM (inactive); in the assay with NCI/ADR-RES, > 100 µM (inactive). Moreover, the GI50 in the assay on TK-10 and in the assay with HCT-116 was > 100 µM (inactive) each time.

Consider `O=C1C(Cl)C(c2cccc(Br)c2)N1c1c(O)c(Cl)cc(Br)c1Cl` (stereo not given), for which the GI50 was 16.1 µM (inactive) in the assay with OVCAR-3; 15.9 µM (inactive) in the assay on K562; 14.4 µM (inactive) with RPMI-8226; 15.2 µM (inactive) in the assay on T47D; 10.9 µM (inactive) with RXF 393; 23.4 µM (inactive) with 786-0. The GI50 in the assay with NCI-H522 was 14.1 µM (inactive); in the assay with SW-620, 19.3 µM (inactive); with SN12C it was 14.7 µM (inactive); with Malme-3M, 19.1 µM (inactive); in the assay on HL-60 it was 26.4 µM (inactive); in the assay with OVCAR-8, 30.3 µM (inactive). Also, the GI50 in the assay on HCT-15 is 2.32 µM; in the assay with MDA-MB-435, 15 µM (inactive); in the assay on MDA-N, 18.5 µM (inactive); with SF-295, 17.4 µM (inactive); in the assay on SR it was 20.4 µM (inactive); in the assay on NCI/ADR-RES, 23.8 µM (inactive). Further, the GI50 in the assay with TK-10 is 19 µM (inactive); with HCT-116, 14.5 µM (inactive).

Regarding `CC1(C)C(=O)/C=C\C(=O)C(C)(C)C2=CC=C(O2)C(C)(C)C(=O)C(Br)C(Br)C(=O)C(C)(C)C2=CC=C1O2` (stereo not given), the GI50 with OVCAR-3 was 29.9 µM (inactive); in the assay on K562, 5.19 µM (inactive); with RPMI-8226 it was 2.58 µM (inactive); in the assay with T47D, > 81.7 µM (inactive); with RXF 393, 31.3 µM (inactive); in the assay on 786-0, 39.6 µM (inactive). The GI50 in the assay with NCI-H522 is 21.8 µM (inactive); in the assay with SW-620, 7.4 µM (inactive); in the assay with SN12C, > 80 µM (inactive); in the assay with Malme-3M, 49.9 µM (inactive); in the assay with HL-60 it was 4.76 µM (inactive); in the assay on OVCAR-8, 12 µM (inactive). The GI50 in the assay with HCT-15 was 53.1 µM; with MDA-MB-435, 34.4 µM (inactive); in the assay with MDA-N it was > 45 µM (inactive); in the assay with SF-295 it was > 100 µM (inactive); in the assay with SR, 2.12 µM (inactive); with NCI/ADR-RES it was 23.2 µM (inactive). The results for the GI50 with TK-10 and in the assay with HCT-116 were > 100 µM (inactive) and 17.9 µM (inactive), respectively.

Consider `CC(C)(C)c1ccc(O)c(C(O)c2ccccn2)c1` (stereo not given), for which the GI50 was > 100 µM (inactive) in the assay on OVCAR-3; 42.9 µM (inactive) in the assay on K562; 58.5 µM (inactive) with RPMI-8226; 34.9 µM (inactive) in the assay on T47D; 66.8 µM (inactive) in the assay on RXF 393; 61.8 µM (inactive) in the assay on 786-0. In addition, the GI50 in the assay with NCI-H522 is 68.7 µM (inactive); in the assay on SW-620, > 100 µM (inactive); in the assay on SN12C it was 74 µM (inactive); with Malme-3M, 37.6 µM (inactive); in the assay on HL-60 it was 45.1 µM (inactive); in the assay with OVCAR-8, > 100 µM (inactive). The GI50 is 35.4 µM with HCT-15; > 100 µM (inactive) in the assay with MDA-MB-435; > 100 µM (inactive) with MDA-N; 57.5 µM (inactive) in the assay on SF-295; 70.1 µM (inactive) in the assay with SR; 48 µM (inactive) with NCI/ADR-RES. For the same compound, the GI50 is > 100 µM (inactive) in the assay with TK-10 and 61.4 µM (inactive) in the assay on HCT-116.

As for `CN(C)Cc1cc(C(=O)/C=C/c2ccccc2Cl)cc(CN(C)C)c1O`, the GI50 with OVCAR-3 is 7.93 µM (inactive); in the assay with K562, 4.79 µM (inactive); with RPMI-8226, 13.8 µM (inactive); in the assay with T47D, > 10 µM (inactive); with RXF 393, 17.1 µM (inactive); in the assay on 786-0, 7.36 µM (inactive). In addition, the GI50 is 3.93 µM (inactive) with NCI-H522; 4.86 µM (inactive) in the assay with SW-620; 9.16 µM (inactive) with SN12C; 11 µM (inactive) with Malme-3M; 4.3 µM (inactive) in the assay with HL-60; 10.1 µM (inactive) in the assay on OVCAR-8. In addition, the GI50 was 14.7 µM in the assay on HCT-15; 13.5 µM (inactive) in the assay with MDA-MB-435; 13 µM (inactive) in the assay with MDA-N; 14.6 µM (inactive) in the assay on SF-295; 5.6 µM (inactive) in the assay on SR; 12.8 µM (inactive) with NCI/ADR-RES. Also, the results for the GI50 with TK-10 and in the assay with HCT-116 were 19.7 µM (inactive) and 5.42 µM (inactive), respectively.

For `O=C(O)c1cc2ccccc2c(Cc2c(O)c(C(=O)O)cc3ccccc23)c1O` [PAMOIC ACID], the GI50 with OVCAR-3, in the assay on K562, in the assay with RPMI-8226, in the assay on T47D, with RXF 393 and with 786-0 was > 100 µM (inactive) throughout. For the same compound, the GI50 in the assay with NCI-H522, in the assay with SW-620, in the assay on SN12C, with Malme-3M, in the assay on HL-60 and in the assay with OVCAR-8 was > 100 µM (inactive) each time. Besides, the GI50 in the assay with HCT-15 was more than 100 µM; with MDA-MB-435 it was > 100 µM (inactive); in the assay with MDA-N, > 100 µM (inactive); in the assay on SF-295, > 100 µM (inactive); in the assay with SR, > 100 µM (inactive); in the assay on NCI/ADR-RES, > 100 µM (inactive). For the same compound, the GI50 in the assay with TK-10 and in the assay on HCT-116 was > 100 µM (inactive) in each case.

For the compound `Oc1ncc(N(CCCl)CCCl)c(O)n1` [URACIL MUSTARD], the GI50 with OVCAR-3 was 74.6 µM (inactive); with K562 it was 42.5 µM (inactive); in the assay on RPMI-8226, 41.6 µM (inactive); with T47D, 12.9 µM (inactive); in the assay on RXF 393, 20.7 µM (inactive); in the assay on 786-0, 10 µM (inactive). The GI50 in the assay with NCI-H522 was 14.3 µM (inactive); in the assay on SW-620, 35.3 µM (inactive); in the assay on SN12C, 8.65 µM (inactive); with Malme-3M it was 32.8 µM (inactive); in the assay on HL-60, 1.43 µM (inactive); in the assay with OVCAR-8, 42.2 µM (inactive). The GI50 in the assay on HCT-15 was 50.2 µM; with MDA-MB-435, 64 µM (inactive); in the assay on MDA-N, 60.4 µM (inactive); in the assay with SF-295, 14.7 µM (inactive); in the assay on SR it was 1.58 µM (inactive); in the assay on NCI/ADR-RES, 23.7 µM (inactive). For the same compound, the GI50 in the assay with TK-10 is 110 µM (inactive); in the assay with HCT-116, 49 µM (inactive).

Turning to `[C-]#[N+]C(=C\c1ccc(O)cc1)/C(=C/c1ccc(O)cc1)[N+]#[C-]` [XANTOCILLIN], the GI50 in the assay with OVCAR-3 is 2.33 µM (inactive); in the assay on K562 it was 0.465 µM (active); in the assay with RPMI-8226 it was 4.39 µM (inactive); in the assay with T47D it was 3.34 µM (inactive); in the assay with RXF 393, 1.85 µM (inactive); in the assay on 786-0, 6.4 µM (inactive). In addition, the GI50 in the assay with NCI-H522 was 3.14 µM (inactive); with SW-620, 1.14 µM (inactive); with SN12C, 2.06 µM (inactive); with Malme-3M, 0.871 µM (active); with HL-60, 1.07 µM (active); in the assay with OVCAR-8 it was 1.28 µM (inactive). Further, the GI50 in the assay with HCT-15 was 1.45 µM; with MDA-MB-435, 1.28 µM (inactive); in the assay with MDA-N, 1.47 µM (inactive); in the assay on SF-295, 4.02 µM (inactive); in the assay with SR, 1.67 µM (inactive); in the assay with NCI/ADR-RES, 2.44 µM (inactive). In addition, the GI50 with TK-10 is 3.01 µM (inactive); with HCT-116, 0.6 µM (active).

The record behind these values is ChEMBL document CHEMBL1201862, “PubChem BioAssay data set” (2004).
